≈ marks a conversion by molar mass, not a printed value. Like-named read-outs stand apart in the source and are kept apart here.
Key:
Staph. aureus 2620 [1] = assay: MIC, standard microtiter assay; assay type: cell-based; settings: Staphylococcus aureus, Staph. aureus 2620, read-out: MIC
Description: (§1) The in vitro minimal inhibitory concentration (MIC) of the AAJ-271 complex and its factors, and vancomycin were determined for a number of microorganisms using the standard microtite'r assay procedures. The results are shown in the following tables, each of which represents a different production run of the complex.
(§2) The in vitro minimal inhibitory concentration (MIC) and the in vitro minimal bactericidal concentration (MBC) of the AAJ-271 aglycones, pseudo-aglycone and vancomycin were determined for a number of microorganisms using the standard microtiter assay procedures.

Staph. aureus 675 [2] = assay: MIC, standard microtiter assay; assay type: cell-based; settings: Staphylococcus aureus, Staph. aureus 675, read-out: MIC
Description: as §1, §2

Staph. aureus HH127 [3] = assay: MIC, standard microtiter assay; assay type: cell-based; settings: Staphylococcus aureus, Staph. aureus HH127, read-out: MIC
Description: as §1, §2

Staph. epidermidis 2265 [4] = assay: MIC, standard microtiter assay; assay type: cell-based; settings: Staphylococcus epidermidis, Staph. epidermidis 2265, read-out: MIC
Description: as §1, §2

Staph. epidermidis 2479 [5] = assay: MIC, standard microtiter assay; assay type: cell-based; settings: Staphylococcus epidermidis, Staph. epidermidis 2479, read-out: MIC
Description: as §1, §2

Staph. haemolyticus 651 [6] = assay: MIC, standard microtiter assay; assay type: cell-based; settings: Staphylococcus haemolyticus, Staph. haemolyticus 651, read-out: MIC
Description: as §1, §2

Strep. faecalis 34358 [7] = assay: MIC, standard microtiter assay; assay type: cell-based; settings: Enterococcus faecalis, Strep. faecalis 34358, read-out: MIC
Description: as §1, §2

Strep. faecalis 657 [8] = assay: MIC, standard microtiter assay; assay type: cell-based; settings: Enterococcus faecalis, Strep. faecalis 657, read-out: MIC
Description: as §1, §2

Staph. aureus 2620 [9] = assay: MBC, standard assay procedures; assay type: cell-based; settings: Staphylococcus aureus, Staph. aureus 2620, read-out: MBC
Description: (§3) The in vitro minimal bactericidal concentration (MBC) of the AAJ-271 C, C2 and C3 factors and vancomycin were determined for a number of microorganisms using standard assay procedures.
as §2

Staph. aureus 675 [10] = assay: MBC, standard assay procedures; assay type: cell-based; settings: Staphylococcus aureus, Staph. aureus 675, read-out: MBC
Description: as §3, §2

Staph. aureus HH127 [11] = assay: MBC, standard assay procedures; assay type: cell-based; settings: Staphylococcus aureus, Staph. aureus HH127, read-out: MBC
Description: as §3, §2

Staph. epidermidis 2265 [12] = assay: MBC, standard assay procedures; assay type: cell-based; settings: Staphylococcus epidermidis, Staph. epidermidis 2265, read-out: MBC
Description: as §3, §2

Staph. epidermidis 2479 [13] = assay: MBC, standard assay procedures; assay type: cell-based; settings: Staphylococcus epidermidis, Staph. epidermidis 2479, read-out: MBC
Description: as §3, §2

Staph. haemolyticus 651 [14] = assay: MBC, standard assay procedures; assay type: cell-based; settings: Staphylococcus haemolyticus, Staph. haemolyticus 651, read-out: MBC
Description: as §3, §2

Strep. faecalis 34358 [15] = assay: MBC, standard assay procedures; assay type: cell-based; settings: Enterococcus faecalis, Strep. faecalis 34358, read-out: MBC
Description: as §3, §2

Strep. faecalis 657 [16] = assay: MBC, standard assay procedures; assay type: cell-based; settings: Enterococcus faecalis, Strep. faecalis 657, read-out: MBC
Description: as §3, §2

Staph. aureus 209P [17] = assay: MIC, standard microtiter assay; assay type: cell-based; settings: Staphylococcus aureus; Staph. aureus 209P; Table VIII; read-out: MIC
Description: as §1, §2

Staph. aureus 910 [18] = assay: MIC, standard microtiter assay; assay type: cell-based; settings: Staphylococcus aureus; Staph. aureus 910; Table VIII; read-out: MIC
Description: as §1, §2

Staph. epidermidis 2256 [19] = assay: MIC, standard microtiter assay; assay type: cell-based; settings: Staphylococcus epidermidis; Staph. epidermidis 2256; Table VIII; read-out: MIC
Description: as §1, §2

Staph. epidermidis 2588 [20] = assay: MIC, standard microtiter assay; assay type: cell-based; settings: Staphylococcus epidermidis; Staph. epidermidis 2588; Table VIII; read-out: MIC
Description: as §1, §2

[21] = tested on: Staph. saprophyticus 2657; assay: MIC, standard microtiter assay; assay type: cell-based; settings: Staphylococcus saprophyticus; Staph. saprophyticus 2657; Table VIII; read-out: MIC
Description: as §1, §2

[22] = tested on: Strep. pyogenes (Group A); assay: MIC, standard microtiter assay; assay type: cell-based; settings: Streptococcus pyogenes; Strep. pyogenes (Group A); Table VIII; read-out: MIC
Description: as §1, §2

[23] = tested on: Staph. aureus 209P vancomycin resistant mutant; assay: MIC, standard microtiter assay; assay type: cell-based; settings: Staphylococcus aureus, read-out: MIC in μg/ml
Description: as §2

Staph. epidermidis 2261 [24] = assay: MIC, standard microtiter assay; assay type: cell-based; settings: Staphylococcus epidermidis; Staph. epidermidis 2261; Table VIII; read-out: MIC
Description: as §2

[25] = tested on: Staph. aureus 209P vancomycin resistant mutant; assay: MBC, standard assay procedures; assay type: cell-based; settings: Staphylococcus aureus, read-out: MBC in μg/ml
Description: as §2

Staph. aureus 209P [26] = assay: MBC, standard assay procedures; assay type: cell-based; settings: Staphylococcus aureus; Staph. aureus 209P; Table VIII; read-out: MBC
Description: as §2

Staph. aureus 910 [27] = assay: MBC, standard assay procedures; assay type: cell-based; settings: Staphylococcus aureus; Staph. aureus 910; Table VIII; read-out: MBC
Description: as §2

Staph. epidermidis 2256 [28] = assay: MBC, standard assay procedures; assay type: cell-based; settings: Staphylococcus epidermidis; Staph. epidermidis 2256; Table VIII; read-out: MBC
Description: as §2

Staph. epidermidis 2261 [29] = assay: MBC, standard assay procedures; assay type: cell-based; settings: Staphylococcus epidermidis; Staph. epidermidis 2261; Table VIII; read-out: MBC
Description: as §2

Staph. epidermidis 2588 [30] = assay: MBC, standard assay procedures; assay type: cell-based; settings: Staphylococcus epidermidis; Staph. epidermidis 2588; Table VIII; read-out: MBC
Description: as §2

[31] = tested on: Staph. saprophyticus 2657; assay: MBC, standard assay procedures; assay type: cell-based; settings: Staphylococcus saprophyticus; Staph. saprophyticus 2657; Table VIII; read-out: MBC
Description: as §2

[32] = tested on: Strep. pyogenes (Group A); assay: MBC, standard assay procedures; assay type: cell-based; settings: Streptococcus pyogenes; Strep. pyogenes (Group A); Table VIII; read-out: MBC
Description: as §2

Staph. aureus HH127 [33] = assay: Mouse protection assay; assay type: in vivo; settings: Staphylococcus aureus, 1 h; mice; intraperitoneal s.c. infection; Staph. aureus HH127, Dosage as No. of LD50's = 4; treatment one hour post infection; Table X; read-out: ED50
Strep. faecalis 34358 [34] = assay: Mouse protection assay; assay type: in vivo; settings: Enterococcus faecalis, 1 h; mice; intraperitoneal s.c. infection; Strep. faecalis 34358, Dosage as No. of LD50's = 3.5; treatment one hour post infection; Table X; read-out: ED50
Staph. aureus 2630 = assay: Mouse protection assay; assay type: in vivo; settings: Staphylococcus aureus, 2630, 1 h

CNC1C(=O)NC2Cc3ccc(cc3)Oc3cc4cc(c3O)Oc3ccc(cc3Cl)C(O)C3NC(=O)C(NC(=O)C4NC(=O)C(NC2=O)c2cc(cc(O)c2Cl)Oc2cc1ccc2O)c1ccc(O)c(c1)-c1c(O[C@H]2O[C@H](CO)[C@@H](O)[C@H](O)[C@@H]2O)cc(O)cc1C(C(=O)O)NC3=O (stereo partly drawn) [AAJ 271 Pseudo-aglycone]
MIC (Staph. aureus 2620 [1]; Table IX): 3.1 µg/mL (≈ 2.25 µM)
MIC (Staph. aureus 675 [2]; Table IX): 3.1 µg/mL (≈ 2.25 µM)
MIC (Staph. aureus HH127 [3]; Table IX): 3.1 µg/mL (≈ 2.25 µM)
MIC (Staph. epidermidis 2265 [4]; Table IX): 12.5 µg/mL (≈ 9.09 µM)
MIC (Staph. epidermidis 2479 [5]; Table IX): 6.3 µg/mL (≈ 4.58 µM)
MIC (Staph. haemolyticus 651 [6]; Table IX): 25 µg/mL (≈ 18.2 µM)
MIC (Strep. faecalis 34358 [7]; Table IX): 3.1 µg/mL (≈ 2.25 µM)
MIC (Strep. faecalis 657 [8]; Table IX): 3.1 µg/mL (≈ 2.25 µM)
MBC (Staph. aureus 2620 [9]; Table IX): 3.1 µg/mL (≈ 2.25 µM)
MBC (Staph. aureus 675 [10]; Table IX): 3.1 µg/mL (≈ 2.25 µM)
MBC (Staph. aureus HH127 [11]; Table IX): 6.3 µg/mL (≈ 4.58 µM)
MBC (Staph. epidermidis 2265 [12]; Table IX): 12.5 µg/mL (≈ 9.09 µM)
MBC (Staph. epidermidis 2479 [13]; Table IX): 6.3 µg/mL (≈ 4.58 µM)
MBC (Staph. haemolyticus 651 [14]; Table IX): 25 µg/mL (≈ 18.2 µM)
MBC (Strep. faecalis 34358 [15]; Table IX): 3.1 µg/mL (≈ 2.25 µM)
MBC (Strep. faecalis 657 [16]; Table IX): 3.1 µg/mL (≈ 2.25 µM)

CNC1C(=O)NC2Cc3ccc(cc3)Oc3cc4cc(c3O)Oc3ccc(cc3Cl)C(O)C3NC(=O)C(NC(=O)C4NC(=O)C(NC2=O)c2cc(cc(O)c2Cl)Oc2cc1ccc2O)c1ccc(O)c(c1)-c1c(O)cc(O)cc1C(C(=O)O)NC3=O (stereo not drawn) [Aglycone 1]
MIC (Staph. aureus 209P [17]): 0.4 µg/mL (≈ 0.33 µM)
MIC (Staph. aureus 2620 [1]; Table VIII): 0.4 µg/mL (≈ 0.33 µM)
MIC (Staph. aureus 675 [2]; Table VIII): 0.8 µg/mL (≈ 0.66 µM)
MIC (Staph. aureus 910 [18]): 0.4 µg/mL (≈ 0.33 µM)
MIC (Staph. aureus HH127 [3]; Table VIII): 0.4 µg/mL (≈ 0.33 µM)
MIC (Staph. epidermidis 2256 [19]): 1.6 µg/mL (≈ 1.32 µM)
MIC (Staph. epidermidis 2265 [4]; Table VIII): 0.4 µg/mL (≈ 0.33 µM)
MIC (Staph. epidermidis 2479 [5]; Table VIII): 0.8 µg/mL (≈ 0.66 µM)
MIC (Staph. epidermidis 2588 [20]): 0.8 µg/mL (≈ 0.66 µM)
MIC (Staph. haemolyticus 651 [6]; Table VIII): 3.1 µg/mL (≈ 2.56 µM)
MIC [21]: 0.8 µg/mL (≈ 0.66 µM)
MIC (Strep. faecalis 34358 [7]; Table VIII): 1.6 µg/mL (≈ 1.32 µM)
MIC (Strep. faecalis 657 [8]; Table VIII): 1.6 µg/mL (≈ 1.32 µM)
MIC [22]: 0.8 µg/mL (≈ 0.66 µM)
MIC [23]: 25 µg/mL (≈ 20.6 µM)
MIC (Staph. epidermidis 2261 [24]): 0.8 µg/mL (≈ 0.66 µM)
MBC (Staph. aureus 2620 [9]; Table VIII): 3.1 µg/mL (≈ 2.56 µM)
MBC (Staph. aureus 675 [10]; Table VIII): 6.3 µg/mL (≈ 5.19 µM)
MBC (Staph. aureus HH127 [11]; Table VIII): 1.6 µg/mL (≈ 1.32 µM)
MBC (Staph. epidermidis 2265 [12]; Table VIII): 0.4 µg/mL (≈ 0.33 µM)
MBC (Staph. epidermidis 2479 [13]; Table VIII): 6.3 µg/mL (≈ 5.19 µM)
MBC (Staph. haemolyticus 651 [14]; Table VIII): 6.3 µg/mL (≈ 5.19 µM)
MBC (Strep. faecalis 34358 [15]; Table VIII): 100 µg/mL (≈ 82.4 µM)
MBC (Strep. faecalis 657 [16]; Table VIII): 100 µg/mL (≈ 82.4 µM)
MBC [25]: 25 µg/mL (≈ 20.6 µM)
MBC (Staph. aureus 209P [26]): 3.1 µg/mL (≈ 2.56 µM)
MBC (Staph. aureus 910 [27]): 3.1 µg/mL (≈ 2.56 µM)
MBC (Staph. epidermidis 2256 [28]): 1.6 µg/mL (≈ 1.32 µM)
MBC (Staph. epidermidis 2261 [29]): 1.6 µg/mL (≈ 1.32 µM)
MBC (Staph. epidermidis 2588 [30]): 0.8 µg/mL (≈ 0.66 µM)
MBC [31]: 1.6 µg/mL (≈ 1.32 µM)
MBC [32]: 0.8 µg/mL (≈ 0.66 µM)
ED50 (Staph. aureus HH127 [33]): 0.88 mg/kg
ED50 (Strep. faecalis 34358 [34]): 5 mg/kg
ED50 (Staph. aureus 2630): 6.4 mg/kg

Source: patent publication EP0255256A2, “Antibiotics produced by actinomadura parvosata” (SMITHKLINE BECKMAN CORPORATION, priority 1986, dated 1988)
